# Literature values in patent US6680306B2, “Method for enhancing the effectiveness of cancer therapies” (GlycoGenesys, Inc., priority 2001, dated 2004).
# Experiments:
# BT549 cells = details: BT549 human breast epithelial cell line that does not express detectable levels of galectin-3
# [1] = test system: galectin-3 transfected BT549 cells; details: galectin-3 transfected BT549 cells treated with genistein
compound,measurement,setting,value
O=c1c(-c2ccc(O)cc2)coc2cc(O)cc(O)c12 [genistein],apoptosis induction,BT549 cells,"effectively induces apoptosis, without detectable cell cycle arrest"
same,cell cycle arrest / apoptosis induction,[1],cell cycle arrest at the G(2)/M phase takes place without apoptosis induction
